{"source": "patent US20220105189A1", "about": "“POLYETHYLENE GLYCOL CONJUGATED DRUG AND ITS PREPARATION METHOD AND USE” (CHONGQING UPGRA BIOTECHNOLOGY CO., LTD., priority 2019, published 2022)", "test_system": "human colon cancer cell colo205", "assay": "Anti-tumor efficacy on subcutaneously transplanted tumor of colo205 (Experimental Example 2)", "type": "in vivo, Balb/c nude mice", "conditions": "colo205, Day 19; 23-161 16.06 mg/kg tail vein; PCB 1.73 mg/kg oral", "description": "1. Tumor strain and transplantation method of solid tumor: Human colon cancer cell colo205 was routinely preserved in the cell room of the State Key Laboratory of Molecular Oncology, Institute of Cancer Research, Chinese Academy of Medical Sciences. The tumor cells were taken out of liquid nitrogen, quickly thawed at 37° C., resuscitated and expanded, and then inoculated subcutaneously in the right axillary of healthy Balb/c mice. When the transplanted tumor grew to about 1.0 cm in diameter, the mice were sacrificed. Under aseptic conditions, the tumors were peeled off for passage by conventional methods.\n2. Tumor inoculation and grouping: the tumor-bearing mice were sacrificed, the tumors were peeled off under aseptic condition and washed with normal saline several times, the necrotic tissues were removed, the well-growing tumor tissues were selected and divided into 2×2 mm tissue blocks, and the tumor tissue blocks were inoculated subcutaneously in the right axillary with a special metal trocar. After the transplantation of the tumor tissue blocks, administration in groups was carried out on the day of the transplantation.\n3. […]\n4. Data collection: the mice were weighed, the volume of tumors was measured, the mice were scarified on Day 19, the tumors were weighed, and the tumor inhibition rate (%) was calculated. […]"}
{"smiles": "CC(=O)c1c(C)c2cnc(Nc3ccc(N4CCNCC4)cn3)nc2n(C2CCCC2)c1=O", "note": "[PCB, Palbociclib]", "values": [{"measurement": "Tumor inhibition rate", "result": "−5.8", "unit": "%"}, {"measurement": "Tumor weight (g) Average", "result": 0.39, "unit": "g"}]}
